Our source for the IC50 values is BindingDB's records for patent US20230303553 (Jiangsu Tasly Diyi Pharmaceutical, 2023).

Broadly, the IC50 is the concentration that gives 50% inhibition.

This assay concerns the target Cyclin-dependent kinase 6 (Homo sapiens, UniProt Q00534). The experiment in a line: CDK6 Kinase Activity Analysis and Detection Method.

Sequence of Cyclin-dependent kinase 6 (Q00534 whole entry): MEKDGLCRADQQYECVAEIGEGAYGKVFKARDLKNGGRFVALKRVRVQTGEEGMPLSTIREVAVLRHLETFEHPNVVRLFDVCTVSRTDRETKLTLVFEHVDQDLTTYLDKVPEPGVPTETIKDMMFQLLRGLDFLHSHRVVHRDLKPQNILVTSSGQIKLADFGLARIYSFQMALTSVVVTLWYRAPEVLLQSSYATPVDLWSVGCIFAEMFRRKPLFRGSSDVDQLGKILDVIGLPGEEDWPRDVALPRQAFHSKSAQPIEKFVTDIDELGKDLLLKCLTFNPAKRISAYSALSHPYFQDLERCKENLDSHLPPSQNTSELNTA

`CCN1CCN(C(=O)c2ccc(Nc3ncc(F)c(-c4ccc5nc(C)sc5c4)n3)nc2)CC1` [US20230303553, Example 12] registered a concentration for half-maximal inhibition (IC50) of 0.127 µM.
